Source: ChEMBL document CHEMBL1201862, “PubChem BioAssay data set” (2004)
The source made the active and inactive calls. Rule as the data show it, for most assays here: actives have a measured EC50 and inactives only a lower limit.

Experiments:
[1] = microbe, parasite or virus in culture; format: functional; conditions: Mycobacterium tuberculosis
[2] = Luminescence Cell-Based Dose Retest to Confirm Inhibitors of Cancer Stem Cells. [Related pubchem assays (depositor defined):AID2717, AID2721]; format: functional; conditions: Homo sapiens
INS1 = test: beta cell apoptosis inhibitors, cytokine rescue, dose response, luminescence, retest (AID 449756); format: functional, cell-based; conditions: Rattus norvegicus;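 also: cell death triggered by IL-1 beta plus TNF-alpha plus IFN-gamma mixture; protective hits raise ATP signal compared with cytokine alone wells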
Protein RecA = target: T1, Protein RecA (Mycobacterium tuberculosis, UniProt P9WHJ3); test: Fluorescence Cell-Free Homogeneous Dose Retest to Identify Inhibitors of RecA-Intein Splicing Activity. [Related pubchem assays (depositor defined):AID2097, AID2223, AID489010, AID492950]; format: functional
T1 sequence (P9WHJ3 whole entry): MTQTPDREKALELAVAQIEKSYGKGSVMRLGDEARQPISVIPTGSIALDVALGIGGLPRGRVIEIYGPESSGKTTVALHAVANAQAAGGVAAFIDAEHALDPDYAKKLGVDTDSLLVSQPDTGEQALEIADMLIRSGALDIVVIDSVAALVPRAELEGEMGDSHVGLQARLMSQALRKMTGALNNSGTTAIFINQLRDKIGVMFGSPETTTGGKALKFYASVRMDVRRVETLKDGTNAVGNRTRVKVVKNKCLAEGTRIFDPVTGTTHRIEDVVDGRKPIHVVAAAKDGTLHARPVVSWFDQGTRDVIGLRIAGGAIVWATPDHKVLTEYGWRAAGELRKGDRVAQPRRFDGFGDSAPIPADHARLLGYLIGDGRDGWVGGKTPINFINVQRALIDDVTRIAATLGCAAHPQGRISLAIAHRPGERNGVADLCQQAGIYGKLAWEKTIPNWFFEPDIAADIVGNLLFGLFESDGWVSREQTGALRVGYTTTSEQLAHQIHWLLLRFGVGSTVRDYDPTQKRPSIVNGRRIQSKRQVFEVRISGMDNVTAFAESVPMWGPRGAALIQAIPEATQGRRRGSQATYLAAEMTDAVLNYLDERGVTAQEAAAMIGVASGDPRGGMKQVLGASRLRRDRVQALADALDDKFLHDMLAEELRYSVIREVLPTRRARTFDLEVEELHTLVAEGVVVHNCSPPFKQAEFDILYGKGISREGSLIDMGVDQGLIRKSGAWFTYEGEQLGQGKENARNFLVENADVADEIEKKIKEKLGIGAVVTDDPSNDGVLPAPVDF

[3] = target: T2, Replicative DNA helicase DnaB (Mycobacterium tuberculosis, UniProt P9WMR3); test: DnaB intein splicing inhibitors, dose response, biochemical, cell-free fluorescence (AID 449749); format: functional
T2 sequence (P9WMR3 whole entry): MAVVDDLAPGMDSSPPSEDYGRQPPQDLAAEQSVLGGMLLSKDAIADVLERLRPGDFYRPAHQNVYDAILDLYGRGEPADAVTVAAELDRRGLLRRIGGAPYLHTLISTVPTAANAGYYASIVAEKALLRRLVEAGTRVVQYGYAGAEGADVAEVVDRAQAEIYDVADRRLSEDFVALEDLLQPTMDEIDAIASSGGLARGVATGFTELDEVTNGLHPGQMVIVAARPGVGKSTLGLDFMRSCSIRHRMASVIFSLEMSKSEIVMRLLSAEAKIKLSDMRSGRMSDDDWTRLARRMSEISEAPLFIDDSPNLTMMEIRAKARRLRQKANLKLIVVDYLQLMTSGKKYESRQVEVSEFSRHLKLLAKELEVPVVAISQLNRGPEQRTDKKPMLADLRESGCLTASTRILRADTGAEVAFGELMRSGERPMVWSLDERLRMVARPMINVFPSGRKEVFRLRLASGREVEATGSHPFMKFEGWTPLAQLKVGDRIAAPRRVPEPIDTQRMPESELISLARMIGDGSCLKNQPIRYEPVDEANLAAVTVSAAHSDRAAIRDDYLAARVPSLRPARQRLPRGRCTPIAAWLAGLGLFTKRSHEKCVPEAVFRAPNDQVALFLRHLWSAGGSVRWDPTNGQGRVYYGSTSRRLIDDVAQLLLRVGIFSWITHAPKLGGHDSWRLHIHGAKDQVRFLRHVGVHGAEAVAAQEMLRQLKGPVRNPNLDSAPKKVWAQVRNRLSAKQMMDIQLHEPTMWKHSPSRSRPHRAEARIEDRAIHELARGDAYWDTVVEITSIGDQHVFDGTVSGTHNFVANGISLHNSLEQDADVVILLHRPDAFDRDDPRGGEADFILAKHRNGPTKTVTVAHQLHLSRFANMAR

[4] = target: T3, Calpain-2 catalytic subunit (Sus scrofa, UniProt P43367); test: pig calpain II inhibitor potency, dose response, biochemical, fluorogenic peptide substrate (AID 1420); format: functional
T3 sequence (P43367 whole entry): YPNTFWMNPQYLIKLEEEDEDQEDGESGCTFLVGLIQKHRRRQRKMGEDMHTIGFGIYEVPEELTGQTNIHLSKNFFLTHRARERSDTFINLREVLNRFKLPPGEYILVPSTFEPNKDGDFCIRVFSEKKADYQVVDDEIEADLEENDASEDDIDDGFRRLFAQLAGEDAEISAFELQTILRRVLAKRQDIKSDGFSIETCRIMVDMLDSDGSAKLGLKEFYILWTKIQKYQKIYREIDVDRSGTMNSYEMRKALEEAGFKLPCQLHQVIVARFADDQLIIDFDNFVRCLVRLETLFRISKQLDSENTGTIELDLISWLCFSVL

[5] = inhibitors of intracellular T. cruzi replication, confirmation, NIH3T3 host cells, beta-gal luminescence (AID 2044); format: functional, cell-based;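 also: intracellular parasites grown in NIH/3T3 mouse fibroblasts as host cells; luminescent beta-galactosidase reporter signal from transgenic T. cruzi replicating inside host cells; inhibitors lower the luminescence signal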
[6] = target: T4, Heat shock factor protein 1 (Mus musculus, UniProt P38532); test: inhibition of MG132-induced HSE-luciferase signal, confirmation, cell-based, NIH3T3, luminescence, dose retest (AID 2382); format: functional;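 also: NIH3T3 fibroblasts with HSF1-driven luciferase reporter stressed by proteasome inhibitor MG132; luminescence from HSF1-driven luciferase expression after 8 hours of MG132 stress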
T4 sequence (P38532 whole entry): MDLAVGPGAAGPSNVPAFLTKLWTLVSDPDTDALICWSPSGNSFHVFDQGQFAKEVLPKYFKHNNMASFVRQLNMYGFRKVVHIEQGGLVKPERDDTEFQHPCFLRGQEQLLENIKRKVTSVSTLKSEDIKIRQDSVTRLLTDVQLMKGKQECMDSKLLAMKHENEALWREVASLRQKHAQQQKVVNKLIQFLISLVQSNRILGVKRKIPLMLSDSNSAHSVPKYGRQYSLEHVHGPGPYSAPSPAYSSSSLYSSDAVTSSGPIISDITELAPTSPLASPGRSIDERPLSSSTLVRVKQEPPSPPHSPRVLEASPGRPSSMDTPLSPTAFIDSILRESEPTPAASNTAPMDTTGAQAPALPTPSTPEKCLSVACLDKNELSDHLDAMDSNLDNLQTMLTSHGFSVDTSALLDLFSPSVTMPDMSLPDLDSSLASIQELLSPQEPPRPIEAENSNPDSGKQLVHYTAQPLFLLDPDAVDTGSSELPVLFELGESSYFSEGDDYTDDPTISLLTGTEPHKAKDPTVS

[7] = cytotoxicity toward NIH3T3 fibroblasts, dose response, counter-screen, cell-based, ATP luminescence, mouse fibroblasts (AID 2010); format: functional;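 also: cells exposed to compound for about 90 hours before reading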
Cytochrome P450 3A4 = Cytochrome P450 3A4 (Homo sapiens, UniProt P08684);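 also: CYP3A4 tested as one member of a cytochrome P450 panel screen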
Sequence of Cytochrome P450 3A4 (P08684 whole entry): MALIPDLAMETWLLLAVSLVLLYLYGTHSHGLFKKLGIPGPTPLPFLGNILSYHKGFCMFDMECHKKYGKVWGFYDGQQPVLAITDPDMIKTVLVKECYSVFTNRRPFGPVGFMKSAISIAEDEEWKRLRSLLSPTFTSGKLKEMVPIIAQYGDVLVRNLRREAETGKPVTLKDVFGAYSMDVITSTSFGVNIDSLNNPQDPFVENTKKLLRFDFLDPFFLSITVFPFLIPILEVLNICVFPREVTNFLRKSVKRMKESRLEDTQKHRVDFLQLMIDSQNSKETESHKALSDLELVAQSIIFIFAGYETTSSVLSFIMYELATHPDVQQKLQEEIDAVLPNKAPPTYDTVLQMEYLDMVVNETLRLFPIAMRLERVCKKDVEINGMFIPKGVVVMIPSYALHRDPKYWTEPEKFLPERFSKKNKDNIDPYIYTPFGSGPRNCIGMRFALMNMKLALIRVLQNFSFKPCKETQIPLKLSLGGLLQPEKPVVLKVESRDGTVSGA

Cytochrome P450 1A2 = target: T5, Cytochrome P450 1A2 (Homo sapiens, UniProt P05177);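 also: PubChem cytochrome P450 panel assay, CYP1A2 panel member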
T5 sequence (P05177 whole entry): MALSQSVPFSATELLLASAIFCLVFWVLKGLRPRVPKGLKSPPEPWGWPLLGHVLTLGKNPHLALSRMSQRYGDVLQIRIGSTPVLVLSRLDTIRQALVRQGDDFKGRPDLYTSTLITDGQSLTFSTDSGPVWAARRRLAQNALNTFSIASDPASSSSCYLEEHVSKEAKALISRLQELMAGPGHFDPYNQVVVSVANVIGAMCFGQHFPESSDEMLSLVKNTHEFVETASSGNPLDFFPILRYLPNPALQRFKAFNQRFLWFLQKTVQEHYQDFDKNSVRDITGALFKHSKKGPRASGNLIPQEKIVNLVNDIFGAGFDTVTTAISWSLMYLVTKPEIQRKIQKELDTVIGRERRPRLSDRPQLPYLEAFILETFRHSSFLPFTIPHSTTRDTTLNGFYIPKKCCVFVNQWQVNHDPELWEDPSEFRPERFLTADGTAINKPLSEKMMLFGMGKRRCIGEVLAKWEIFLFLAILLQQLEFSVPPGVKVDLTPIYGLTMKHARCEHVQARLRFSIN

[8] = inhibitors of SNCA 5'UTR-driven reporter translation, confirmation, H4 neuroglioma cells, luminescence (AID 1988); format: functional, cell-based
[9] = inhibitors of firefly luciferase expression or activity, dose response, H4 neuroglioma cells, luminescence (AID 1990); format: functional, cell-based
BJ [10] = test: cells; format: functional, cell-based; conditions: Homo sapiens
BJ [11] = test: cytotoxicity toward BJ-TERT fibroblasts, dose response, cell-based, RAS-independent, luminescence (AID 1933); format: functional; conditions: Homo sapiens
[12] = cytotoxicity toward DRD oncogenic fibroblasts, dose response, cell-based, non-viral oncogenic, luminescence (AID 1934); format: functional; conditions: Homo sapiens
BJ [13] = test: cytotoxicity toward BJ-TERT-LT-ST fibroblasts, dose response, cell-based, RAS-independent, luminescence (AID 1935); format: functional; conditions: Homo sapiens;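 also: BJ fibroblasts immortalized with TERT plus LT and ST oncogenes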
cells = format: functional
[14] = target: T4, Heat shock factor protein 1; test: HSF1 potentiators in luciferase reporter cells, confirmation, cell-based, NIH3T3, luminescence, dose retest (AID 435004); format: functional;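 also: stress induced by proteasome inhibitor MG132 added 30 min after compound; luciferase reporter driven by HSF1 response element in NIH3T3 cells; actives raise luminescence as potentiators of the MG132 stress response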

Oc1ccc(Nc2nc(-c3ccc4ccccc4c3)cs2)cc1
CC50 [1]: 17.1 µM (active)
AC50 [2]: 5.31 µM (active)
AC50 (INS1): 16.6 µM (active)
EC50 (Protein RecA): 7.3 µM (active)
AC50 [3]: 67.6 µM (active)

Cc1cccc(NC(=O)c2cc3c(=O)n4ccccc4nc3n(CC(C)C)c2=N)c1
IC50 [4]: > 50 µM (not active)

CCOC(=O)Cn1c(=O)cc(C)c2cccc(C)c21
IC50 [4]: < 0.4 µM (not active)

Cc1ccc2c(N)c(C(=O)N(c3ccccc3)c3ccccc3)sc2n1
EC50 [5]: 1.3 µM (active)
EC50 [6]: > 195 µM (not active)
EC50 [7]: > 60 µM (not active)

CC1(C)C=C(c2ccc(C=O)s2)CC(C)(C)N1C=O
EC50 [6]: > 195 µM (not active)

CCOC(=O)c1c(C)[nH]c(C2=NN=C(Nc3cccc(Cl)c3)SC2)c1C
EC50 [6]: 25.3 µM (active)

Cc1ccc(NS(=O)(=O)c2cc(C(=O)NCCSC3CCCCC3)ccc2C)cc1
IC50 [4]: > 50 µM (not active)

S=C(c1ccc(N2CCCC2)cc1)N1CCCCC1
IC50 [4]: 12.1 µM (active)

CC(C)CC(=O)NC(NC(=O)CC(C)C)c1cccc([N+](=O)[O-])c1
EC50 [6]: > 195 µM (not active)

C#CCSc1nnc(-c2sc3ccccc3c2Cl)o1
IC50 [4]: > 50 µM (not active)
AC50 (Cytochrome P450 3A4): 8.91 µM (inconclusive)
AC50 (Cytochrome P450 1A2): 0.126 µM (inconclusive)

CCCc1n[nH]c2c1C(c1ccc(O)cc1OCC)C(C#N)=C(N)O2 (stereo unspecified)
EC50 (Protein RecA): 4.6 µM (active)
AC50 [3]: 40.3 µM (active)

CC(C)(C)OC(=O)C1C(=O)CC(C)(O)C(C(=O)OC(C)(C)C)C1c1cccnc1 (stereo unspecified)
EC50 [6]: > 195 µM (not active)

CN(Cc1ccc(Cl)cc1)C(=O)CCl
EC50 (Protein RecA): 2.61 µM (active)
AC50 [3]: 21.8 µM (active)

O=c1ccc2ccc(Oc3ccc(Cl)cc3[N+](=O)[O-])cc2o1
IC50 [4]: < 0.4 µM (not active)

CC(O)c1nc2ccccc2n1Cc1nnc(-c2ccc(Cl)cc2)o1 (stereo unspecified)
EC50 [6]: > 195 µM (not active)

Fc1ccc(Cc2nnc(-c3cccs3)o2)cc1
EC50 [6]: > 195 µM (not active)

Cc1cccc(NC(=O)CSc2nnc(CNC(=O)c3cccs3)o2)c1C
IC50 [4]: 7.44 µM (not active)

O=C(NCCc1ccccn1)c1ccc(OC(F)F)cc1
IC50 [4]: < 0.4 µM (not active)

COc1ccc(CCNC(=O)CC2(CC3=NS(=O)(=O)c4ccccc4N3)CCCC2)cc1OC
EC50 [8]: > 120 µM (not active)
EC50 [9]: 18.8 µM (active)

CCOc1ccc(NC(=O)CN(C)C(=O)c2ccc(N3CCCC3)c([N+](=O)[O-])c2)cc1OCC
EC50 [6]: > 195 µM (not active)

COc1ccc(-c2noc(N3CCC(C(=O)NCCCN4CC(C)CC(C)C4)CC3)n2)cc1 (stereo unspecified)
EC50 [6]: > 195 µM (not active)

S=C(Nc1ccccc1Oc1ccccc1)Nc1cccc(Cl)c1Cl
IC50 [4]: 12.7 µM (not active)

COC(=O)c1c(C)oc2ccc(N(C(=O)c3ccncc3)S(=O)(=O)c3ccc(C)cc3C)cc12
AC50 (INS1): 3.85 µM (active)
EC50 (Protein RecA): 10.9 µM (active)
AC50 [3]: 2.27 µM (active)

CC(=O)Oc1cc2c(cc1Cl)C1(CC(c3ccccc3Cl)O2)CC(C)(C)N=C(S)N1 (stereo unspecified)
EC50 (Protein RecA): 14.1 µM (active)
AC50 [3]: 4.22 µM (active)

COC(=O)Nc1sccc1C(=O)Nc1sccc1C(=O)OC
EC50 [6]: > 195 µM (not active)

CC(=C/C(=O)O)/C(=C/c1ccccc1)C(=O)O
IC50 [4]: < 0.4 µM (not active)

CC(=O)N1CC2(c3ccccc3)CN(C(C)=O)CC(c3ccccc3)(C1)C2=O
EC50 (Protein RecA): > 380 µM (inactive)
AC50 [3]: > 380 µM (inactive)

Cc1c(C(=O)N/N=C/c2ccccc2)[nH]c2c([N+](=O)[O-])cccc12
EC50 (BJ [10]): 73.1 µM (inconclusive)
EC50 (BJ [11]): 0.776 µM (active)
EC50 [12]: 27.1 µM (inconclusive)
EC50 (BJ [13]): 0.708 µM (inconclusive)

C/C(CC(=O)Nc1cc(C)ccn1)=N\NC(=O)c1cccc(F)c1
EC50 (Protein RecA): 8.06 µM (active)
AC50 [3]: 18.7 µM (active)

COc1ccc(N/N=C(\C#N)C(=N)SCc2ccccc2)cc1
EC50 (Protein RecA): 8.67 µM (active)
AC50 [3]: 3.6 µM (active)

Cc1[nH]n(-c2ccccc2)c(=O)c1N=Nc1ccc2c(c1)OCO2
EC50 [6]: > 195 µM (not active)

CSC(=N/c1cc(Cl)ccc1Cl)/C(C#N)=C(/O)c1ccco1
CC50 [1]: 37.1 µM (active)
IC50 (cells): 7.46 µM (active)
EC50 (Protein RecA): 0.912 µM (active)
EC50 [14]: 11.2 µM (active)
AC50 [3]: 2.51 µM (active)
